Measured values published in patent US20230085307A1, “PYRIDAZINONE COMPOUND AND HERBICIDE” (NISSAN CHEMICAL CORPORATION, priority 2019, published 2023).

Key:
[1] = test system: Chinese sprangletop; test: Test Example 3: herbicidal effect by foliage application, Wagner pot (Table 18, symbol D); format: in vivo, chinese sprangletop (Leptochloa chinensis); details: for herbicidal effect on D (Chinese sprangletop), rating 0-5: 80 g/ha; for herbicidal effect on D: Chinese sprangletop: amount of applied herbicide 320 g/ha; for herbicidal effect on Chinese sprangletop (D): 320 g/ha
Experimental: (§1) [Test Example 3] Herbicidal Effect Test by Foliage Application After alluvial soil was placed into 1/10000 are of Wagner pot, water was poured and mixed to form a submerged condition having a water depth of 0.1 cm to 0.5 cm. Seeds of barnyard grass, Chinese sprangletop, rice flat sedge, and rice were sowed and the pot was placed in a greenhouse at 25° C. to 30° C. for growth of the plants. After 14-day growth of the plants, the emulsion agent of the compound of the present invention prepared according to Formulation Example 2 was diluted with water so as to achieve a predetermined herbicide amount, and the diluted emulsion agent was uniformly applied to a foliage part with a small-sized spray. Three weeks after the herbicide application, the effect of the herbicide on each plant was evaluated according to the criteria of Test Example 1.

[2] = test system: rice flat sedge; test: Test Example 3: herbicidal effect by foliage application, Wagner pot (Table 18, symbol E); format: in vivo, rice flat sedge (Cyperus iria); details: for herbicidal effect on E (rice flat sedge), rating 0-5: 80 g/ha; for herbicidal effect on E: rice flat sedge: amount of applied herbicide 320 g/ha; for herbicidal effect on rice flat sedge (E): 320 g/ha
Experimental: as §1

[3] = test system: barnyard grass; test: Test Example 3: herbicidal effect by foliage application, Wagner pot (Table 18, symbol H); format: in vivo, barnyard grass (Echinochloa crus-galli); details: for herbicidal effect on H (barnyard grass), rating 0-5: 80 g/ha; for herbicidal effect on H: barnyard grass: amount of applied herbicide 320 g/ha; for herbicidal effect on barnyard grass (H): 320 g/ha
Experimental: as §1

SMILES | herbicidal effect on D: Chinese sprangletop [1] | herbicidal effect on E: rice flat sedge [2] | herbicidal effect on H: barnyard grass [3] | herbicidal effect on Chinese sprangletop (D) [1] | herbicidal effect on rice flat sedge (E) [2] | herbicidal effect on barnyard grass (H) [3] | further results
CCCC(=O)Oc1c(OC)nn(C)c(=O)c1-c1c(-c2ccc(Oc3ccccc3)cc2)sc2ccccc12 [1-165] | – | – | – | – | – | – | herbicidal effect on D (Chinese sprangletop), rating 0-5 [1]: 0 (Herbicidal rate of 5% or less (almost no effect)); herbicidal effect on E (rice flat sedge), rating 0-5 [2]: 0 (Herbicidal rate of 5% or less (almost no effect)); herbicidal effect on H (barnyard grass), rating 0-5 [3]: 2 (Herbicidal rate of 20% or more and less than 40%)
CCCC(=O)Oc1c(OC)nn(C)c(=O)c1-c1c(-c2ccsc2)sc2ccccc12 [1-193] | – | – | – | – | – | – | herbicidal effect on D (Chinese sprangletop), rating 0-5 [1]: 1 (Herbicidal rate of 5% or more and less than 20%); herbicidal effect on E (rice flat sedge), rating 0-5 [2]: 0 (Herbicidal rate of 5% or less (almost no effect)); herbicidal effect on H (barnyard grass), rating 0-5 [3]: 2 (Herbicidal rate of 20% or more and less than 40%)
Cc1nn(C)c(=O)c(-c2c(-c3ccc(C(F)(F)F)cc3Cl)sc3ccc(F)cc23)c1O [2-356] | 4 (Herbicidal rate of 70% or more and less than 90%) | 4 (Herbicidal rate of 70% or more and less than 90%) | 4 (Herbicidal rate of 70% or more and less than 90%) | – | – | – | –
Cc1nn(C)c(=O)c(-c2c(-c3cnc(Cl)s3)sc3ccc(F)cc23)c1O [2-394] | 3 (Herbicidal rate of 40% or more and less than 70%) | 5 (Herbicidal rate of 90% or more (almost completely withered)) | 5 (Herbicidal rate of 90% or more (almost completely withered)) | – | – | – | –
COc1c(C)nn(C)c(=O)c1-c1c(-c2ccnc(F)c2)sc2ccc(F)cc12 [2-427] | 0 (Herbicidal rate of 5% or less (almost no effect)) | 2 (Herbicidal rate of 20% or more and less than 40%) | 3 (Herbicidal rate of 40% or more and less than 70%) | – | – | – | –
Cc1nn(C)c(=O)c(-c2c(-c3ccc(OC(F)F)cc3)sc3c(Cl)cccc23)c1O [4-074] | – | – | – | 0 (Herbicidal rate of 5% or less (almost no effect)) | 3 (Herbicidal rate of 40% or more and less than 70%) | 4 (Herbicidal rate of 70% or more and less than 90%) | –
CCCC(=O)Oc1c(C)nn(C)c(=O)c1-c1c(-c2ccccc2O)sc2c(Cl)cccc12 [4-080] | – | – | – | 3 (Herbicidal rate of 40% or more and less than 70%) | 4 (Herbicidal rate of 70% or more and less than 90%) | 2 (Herbicidal rate of 20% or more and less than 40%) | –
CCCC(=O)Oc1c(C)nn(C)c(=O)c1-c1c(-c2ccc(C(F)(F)F)cc2)sc2cc(Cl)c(Cl)cc12 [5-048] | – | – | – | 4 (Herbicidal rate of 70% or more and less than 90%) | 0 (Herbicidal rate of 5% or less (almost no effect)) | 3 (Herbicidal rate of 40% or more and less than 70%) | –
COc1cc2sc(-c3ccc(C#N)cc3)c(-c3c(O)c(C)nn(C)c3=O)c2cc1Cl [5-074] | – | – | – | 5 (Herbicidal rate of 90% or more (almost completely withered)) | 3 (Herbicidal rate of 40% or more and less than 70%) | 3 (Herbicidal rate of 40% or more and less than 70%) | –
